Results as given in patent US4118487A, “Substituted azol-1-ylmethanes” (Bayer Aktiengesellschaft, priority 1974, dated 1978).
Values after ≈ are worked out from the molar mass of the structure shown. Like-named read-outs stand apart in the source and are kept apart here.

What was measured:
[1] = tested on: Trichophyton mentagrophvtes; assay: Antimycotic activity in vitro, series dilution test (MIC); assay type: cell-based, Trichophyton mentagrophytes; conditions: 28° C., 24-96 hours, Sabouraud's milieu d'epreuve, 5 × 10^4 germs/ml, read-out: MIC values in γ/ml of nutrient medium, for Trichophyton mentagrophvtes
Protocol: (§1) The in vitro tests were carried out in a series dilution test with germ inocula averaging 5 × 10^4 germs/ml of substrate. The nutrient media used were
(§2) (a) for dermatophytes and molds Sabouraud's milieu d'epreuve,
(§3) The incubation temperatures were 28° C. for dermatophytes, yeasts and molds and 37° C. for biphase fungi; the incubation time was 24-96 hours.

Candida albicans = assay: as above; assay type: cell-based; conditions: read-out: MIC values in γ/ml of nutrient medium, for Candida albicans
Protocol: as §1
(b) for yeasts: meat extract-glucose bouillon,
as §3

Pityrosporum ovale = assay: as above; assay type: cell-based; conditions: Malassezia furfur; Abbe medium, 24-96 hours, 5 × 10^4 germs/ml; read-out: MIC values in γ/ml of nutrient medium, for Pityrosporum ovale
Protocol: The in vitro tests were carried out in a series dilution test with germ inocula averaging 5 × 10^4 germs/ml of substrate. The nutrient media used were (c) for Pytrosporum ovale: Abbe medium, and The incubation temperatures were 28° C. for dermatophytes, yeasts and molds and 37° C. for biphase fungi; the incubation time was 24-96 hours.

Aspergillus fumigatus = assay: as above; assay type: cell-based; conditions: read-out: MIC values in γ/ml of nutrient medium, for Aspergillus fumigatus
Protocol: as §1, §2, §3

penicillium = assay: as above; assay type: cell-based; conditions: 28° C., 24-96 hours, Sabouraud's milieu d'epreuve, 5 × 10^4 germs/ml, read-out: MIC values in γ/ml of nutrient medium, for penicillium
Protocol: as §1, §2, §3

Histoplasma = assay: microbe, parasite or virus in culture; assay type: cell-based; conditions: read-out: MIC values in γ/ml of nutrient medium, for Histoplasma
[2] = tested on: Staphylococcus aureus 133; assay: Antibacterial activity in vitro, plast test (MIC); assay type: cell-based; conditions: agar plate, 5 × 10^3 /plate, pH 7.4
Protocol: (§4) The in vitro tests were carried out by the plast test. In this, the bacteria were cast with the agar, at a concentration of 5 × 10^3 /plate. […]

Streptococcus pyogenes W = assay: Antibacterial activity in vitro, plast test (MIC); assay type: cell-based; conditions: agar plate, 5 × 10^3 /plate, pH 7.4; in µg/mL
Protocol: as §4

bacteria = assay: Antibacterial activity (general statement); assay type: cell-based
fungi = conditions: Belgian Pat. No. 720,801; cited from earlier work
Klebsiella 8085 = assay: Antibacterial activity in vitro, plast test (MIC); assay type: cell-based; conditions: agar plate, 5 × 10^3 /plate, pH 7.4
Protocol: as §4

Proteus vulgaris 1017 = assay: Antibacterial activity in vitro, plast test (MIC); assay type: cell-based; conditions: agar plate, 5 × 10^3 /plate, pH 7.4
Protocol: as §4

E-Coli A 261 = assay: Antibacterial activity in vitro, plast test (MIC); assay type: cell-based; conditions: agar plate, 5 × 10^3 /plate, pH 7.4
Protocol: as §4

Pseudomonas aerug. B = assay: Antibacterial activity in vitro, plast test (MIC); assay type: cell-based; conditions: agar plate, 5 × 10^3 /plate, pH 7.4
Protocol: as §4

[3] = 28° C., 24-96 hours, meat extract-glucose bouillon, 5 × 10^4 germs/ml
[4] = 28° C., 24-96 hours, Sabouraud's milieu d'epreuve, 5 × 10^4 germs/ml

| SMILES | MIC [1] [mg/L] | MIC (Pityrosporum ovale) [mg/L] | MIC (penicillium) [mg/L] | MIC (Histoplasma) [mg/L] | MIC values for Staphylococcus aureus 133 [2] [mg/L] | MIC values for Streptococcus pyogenes W (Streptococcus pyogenes W) | further results |
| --- | --- | --- | --- | --- | --- | --- | --- |
| Clc1ccccc1C(c1ccc(-c2ccccc2)cc1)n1ccnc1 (centres unmarked) [drawing 10] | < 1 | 1 (≈ 2.9 µM) | < 0.1 | 4 (≈ 11.6 µM) | – | – | MIC (Candida albicans; [3]): 2 mg/L (≈ 5.8 µM); MIC (Aspergillus fumigatus; [4]): < 0.1 mg/L |
| Clc1ccc(C(c2ccc(-c3ccccc3)cc2)n2ccnc2)cc1 (centres unmarked) | – | – | – | – | 8 | 10 | – |
| COC1=CC(=O)C[C@@H](C)[C@]12Oc1c(Cl)c(OC)cc(OC)c1C2=O [griseofulvin] | – | – | – | – | – | – | antibacterial activity (bacteria): not present |
| Clc1ccccc1C(c1ccccc1)(c1ccccc1)n1ccnc1 [clotrimazol, bisphenyl-(2-chlorophenyl)-imidazol-1-ylmethane] | – | – | – | – | – | – | antimycotic action (fungi): good antimycotic action |
| c1ccc(-c2ccc(C(c3ccccc3)n3ccnc3)cc2)cc1 (centres unmarked) [drawing 9] | < 1 | 1 (≈ 3.22 µM) | < 0.1 | 4 (≈ 12.9 µM) | – | – | MIC (Candida albicans): 4 mg/L (≈ 12.9 µM); MIC (Aspergillus fumigatus): < 0.1 mg/L |
| Clc1cccc(C(c2ccc(-c3ccccc3)cc2)n2ccnc2)c1 (centres unmarked) [drawing 11] | 2 (≈ 5.8 µM) | 1 (≈ 2.9 µM) | < 0.1 | 2 (≈ 5.8 µM) | – | – | MIC (Candida albicans; [3]): 1 mg/L (≈ 2.9 µM); MIC (Aspergillus fumigatus; [4]): < 0.1 mg/L |
| Clc1ccccc1C(c1ccc(Oc2ccccc2)cc1)n1ccnc1 (centres unmarked) | 16 (≈ 44.3 µM) | 1 (≈ 2.77 µM) | < 0.1 | 2 (≈ 5.54 µM) | – | – | MIC (Candida albicans; [3]): 8 mg/L (≈ 22.2 µM); MIC (Aspergillus fumigatus; [4]): < 0.1 mg/L |
| c1ccc(-c2ccc(C(c3ccccc3)n3ccnc3)cc2)cc1 (centres unmarked) [drawing 13] | – | – | – | – | 8 | 10-20 | MIC values for Klebsiella 8085 (Klebsiella 8085): 128 mg/L; MIC values for Proteus vulgaris 1017 (Proteus vulgaris 1017): 128 mg/L |
| C[C@@H]1[C@H](O)[C@@H](C)/C=C/C=C/CC/C=C/C=C/C=C/C=C/C(O[C@H]2O[C@H](C)[C@@H](O)[C@H](N)[C@@H]2O)CC2O[C@](O)(CC(O)C(O)CCC(O)CC(O)CC(O)CC(=O)O[C@H]1C)CC(O)C2C(=O)O (some centres unmarked) [nystatin] | – | – | – | – | – | – | antibacterial activity (bacteria): not present |
| Clc1ccccc1C(c1ccc(-c2ccccc2)cc1)n1ccnc1 (centres unmarked) [drawing 14] | – | – | – | – | 8 | 128 | MIC values for E-Coli A 261 (E-Coli A 261): 256 mg/L; MIC values for Klebsiella 8085 (Klebsiella 8085): 128 mg/L; MIC values for Proteus vulgaris 1017 (Proteus vulgaris 1017): 128 mg/L; MIC values for Pseudomonas aerug. B (Pseudomonas aerug. B): 256 mg/L |
| Clc1cccc(C(c2ccc(-c3ccccc3)cc2)n2ccnc2)c1 (centres unmarked) [drawing 16] | – | – | – | – | 8 | 128 | – |
| C[C@@H]1C/C=C/C=C/C=C/C=C/[C@H](O[C@@H]2O[C@H](C)[C@@H](O)[C@H](N)[C@@H]2O)C[C@@H]2O[C@](O)(C[C@@H](O)C[C@H]3O[C@@H]3/C=C/C(=O)O1)C[C@H](O)[C@H]2C(=O)O [pimaricin] | – | – | – | – | – | – | antibacterial activity (bacteria): not present |
| CC(C)(C)c1ccc(C(c2ccc(-c3ccccc3)cc2)n2ccnc2)cc1 (centres unmarked) | – | – | – | – | 8 | 128 | MIC values for Klebsiella 8085 (Klebsiella 8085): 128 mg/L; MIC values for Proteus vulgaris 1017 (Proteus vulgaris 1017): 128 mg/L; MIC values for Pseudomonas aerug. B (Pseudomonas aerug. B): 256 mg/L |
